{"source": "patent US7629141B2", "about": "“Essential and important genes of Pseudomonas aeruginosa and the use thereof to design or identify antibacterial agents” (priority 2001, dated 2009)", "key": {"LpxC from P. aeruginosa": {"target": "LpxC from P. aeruginosa (Pseudomonas aeruginosa, UniProt P47205)", "sequence (P47205 whole entry)": "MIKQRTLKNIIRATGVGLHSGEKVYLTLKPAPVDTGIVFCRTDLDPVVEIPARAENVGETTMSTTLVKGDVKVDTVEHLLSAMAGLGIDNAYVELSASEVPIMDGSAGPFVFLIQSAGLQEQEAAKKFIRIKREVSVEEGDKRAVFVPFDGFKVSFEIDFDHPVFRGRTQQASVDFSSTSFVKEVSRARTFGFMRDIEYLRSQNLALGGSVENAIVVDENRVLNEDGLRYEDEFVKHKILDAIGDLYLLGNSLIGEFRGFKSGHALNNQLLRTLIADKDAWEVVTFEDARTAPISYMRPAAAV", "conditions": "cited from earlier work"}, "E. coli LpxC enzyme": {"target": "E. coli LpxC enzyme (Escherichia coli, UniProt P0A725)", "sequence (P0A725 whole entry)": "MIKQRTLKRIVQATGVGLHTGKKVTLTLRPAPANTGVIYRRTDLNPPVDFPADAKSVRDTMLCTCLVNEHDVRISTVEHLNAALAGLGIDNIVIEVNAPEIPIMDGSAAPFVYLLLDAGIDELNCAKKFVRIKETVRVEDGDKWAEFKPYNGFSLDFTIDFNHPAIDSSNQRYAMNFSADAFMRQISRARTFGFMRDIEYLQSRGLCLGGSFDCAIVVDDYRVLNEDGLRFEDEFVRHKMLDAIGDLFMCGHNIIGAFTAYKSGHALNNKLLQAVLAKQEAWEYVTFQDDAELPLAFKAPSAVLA", "conditions": "cited from earlier work"}, "[1]": {"system": "EnvA1 mutant protein (LpxC, His 19 replaced by Serine)", "conditions": "His 19 replaced by a Serine; cited from earlier work"}, "P. aeruginosa PA01 [2]": {"system": "P. aeruginosa PA01", "protocol": "Polymixin B nonapeptide (Sigma) was prepared as a suspension in DMSO at 3 mg/ml final concentration. Erythromycin and Tetracycline were resuspended in DMSO to a final concentration of 250 mg/ml and 125 mg/ml, respectively. L-161,240 was prepared as above in DMSO to a final concentration of 10 mg/ml. These DMSO antibiotic solutions were individually added to LB to the appropriate final concentration and mixed. Polymixin B nonapeptide was then added to the appropriate samples and mixed. DMSO was added to each sample to keep the final concentration of DMSO equivalent between samples. A stationary phase overnight culture of PA01 was added to each sample to bring the final concentration to 0.1 OD600. Samples were removed for OD600 determinations every 1-2 hours for 6.5 hours and the data from these time points were plotted.\nIn order to determine the effect of outer membrane exclusion of L-161,240, we exposed P. aeruginosa to PMBN in combination with L-161,240, and with other lipophilic antibiotics as positive controls."}, "E. coli DH5α": {"system": "E. coli DH5α", "experiment": "Growth curves with inhibitor, E. coli", "type": "cell-based", "protocol": "(§3) Growth curves. Bacterial cultures were prepared by diluting stationary phase overnight cultures to an OD600 of 0.1 in 5 ml of LB. The inhibitor, L-161,240, was resuspended in DMSO to a final concentration of 10 mg/ml and added to the bacterial cultures to a final concentration of 50 μg/ml or 10 μg/ml. In the samples without inhibitor, DMSO was added to keep the final concentration of DMSO equivalent between samples. The cultures were incubated with shaking and 0.8 ml was taken for OD600 readings over the course of the experiment."}, "P. aeruginosa PA01 [3]": {"system": "P. aeruginosa PA01", "experiment": "Growth curves with inhibitor, P. aeruginosa wild type", "type": "cell-based", "protocol": "as §3"}, "[4]": {"system": "P. aeruginosa PAO 200 (MexAB-OprM efflux mutant)", "experiment": "Growth curves with inhibitor, efflux pump mutant", "type": "cell-based", "conditions": "FIG. 4", "from_the_text": "L-161, 240 is a substrate for the major drug efflux pump of P. aeruginosa. […] However the only one that is constitutively expressed to a high degree in the wild type strains is MexAB-OprM (Kohler, T., M. Michea-Hamzehpour, and U. Henze. 1997. Characterization of MexE-MexF-OprN, a positively regulated multidrug efflux system of Pseudomonas aeruginosa. Mol. Microbiol. 23: 345-354). Therefore, mutants of this efflux system can be used to evaluate the consequences of diminished efflux pump activity. These mutants would be expected to be highly sensitive to a number of antibiotics."}, "[5]": {"system": "E. coli JBK-1 carrying lpxC from E. coli", "experiment": "Growth at 42° C. of E. coli JBK-1 carrying the lpxC copy from E. coli", "type": "cell-based", "conditions": "data not shown", "experimental": "(§1) Growth curves. Bacterial cultures were prepared by diluting stationary phase overnight cultures to an OD600 of 0.1 in 5 ml of LB. […] The cultures were incubated with shaking and 0.8 ml was taken for OD600 readings over the course of the experiment. DH5α, PA01, and PA0200 (Schweizer, H. P. 1998. Intrinsic resistance to inhibitors of fatty acid biosynthesis in Pseudomonas aeruginosa is due to efflux: application of a novel technique for generation of unmarked chromosomal mutations for the study of efflux systems. Antimicrob. Agents Chemother. 42: 394-398) were all grown at 37° C. In the cases where temperature sensitive JBK strains were being assayed, the cultures were grown at 42° C. for both the overnight and the time course cultures.\n(§2) The E. coli strain JBK-1/pKD6 contains the chromosomal lpxC gene disrupted with a kan element and a wild type copy of E. coli lpxC on the temperature-sensitive replicon pKD6. The strain was constructed as described by Sorensen et al., 1996. Since lpxC is essential for growth, this strain is not viable at 42° C. because the functional copy is on the temperature sensitive replicon."}, "[6]": {"system": "E. coli JBK-1 carrying lpxC from P. aeruginosa", "experimental": "as §1, §2"}, "[7]": {"system": "'promoter swapped' P. aeruginosa lpxC mutants", "experiment": "MIC determinations for 'promoter swapped' mutants", "type": "cell-based", "experimental": "MIC determinations for ‘promoter swapped’ mutants. Single colonies of DH5α, PA01 and each promoter swap strain were picked and grown in LB at 37° C. with shaking for approximately 4 hours. Assuming that an OD600 reading of 1.0 is equivalent to 10^9 cells/ml, dilutions were made of all cultures to 5×10^5 cells/ml. 200 μl of each diluted culture was added to each well where a two-fold serial dilution of inhibitor had been placed. The 96-well plates were incubated at 37° C. overnight and their OD600 determined using the Spectramax Plus (Molecular Devices) plate reader.\nTo confirm the effect of the arabinose-sensitive promoter in regulating the lpxC expression in the swapped mutants, MIC determinations were performed as above, except that arabinose was added to induce expression of the chromosomal locus and override the effects of the plasmid borne lpxC. In this case the stationary-phase overnight bacterial culture was diluted to 5×10^5 cells/ml in LB containing Arabinose to a final concentration of 0.2% (a 20% stock made up in water).\nUsing the ‘promoter swap’ technique as described in the methods, it was possible to replace expression from the wild type chromosomal copy of P. aeruginosa lpxC, with expression solely from a plasmid borne copy. […]"}, "E. coli [8]": {"system": "E. coli", "conditions": "cited from earlier work"}, "E. coli [9]": {"system": "E. coli", "conditions": "lethal intraperitoneal dose of E. coli; cited from earlier work"}, "P. aeruginosa": {"system": "P. aeruginosa", "conditions": "cited from earlier work"}}}
{"smiles": "O=C(O)CN(CCN(CC(=O)O)CC(=O)O)CC(=O)O", "note": "[EDTA]", "values": [{"measurement": "EDTA concentration significantly inhibiting P. aeruginosa LpxC enzyme", "setting": "LpxC from P. aeruginosa", "value": "≤ 2", "unit": "µM"}, {"measurement": "sensitivity of E. coli LpxC enzyme to EDTA", "setting": "E. coli LpxC enzyme", "value": "not sensitive"}, {"measurement": "sensitivity of envA1 mutant LpxC to EDTA", "setting": "[1]", "value": "sensitive"}]}
{"smiles": "CN(C)[C@@H]1C(O)=C(C(N)=O)C(=O)[C@@]2(O)C(O)=C3C(=O)c4c(O)cccc4[C@@](C)(O)[C@H]3C[C@@H]12", "note": "[tetracycline]", "values": [{"measurement": "lowering of MIC for P. aeruginosa by PMBN", "setting": "P. aeruginosa PA01 [2]", "value": "more than 16 fold"}]}
{"smiles": "CCCc1cc(C2=N[C@@H](C(=O)NO)CO2)cc(OC)c1OC", "note": "[L-161,240]", "values": [{"measurement": "prevention of growth of E. coli", "setting": "E. coli DH5α", "value": "effective in preventing growth"}, {"measurement": "prevention of growth of P. aeruginosa", "setting": "P. aeruginosa PA01 [3]", "value": "completely ineffective"}, {"measurement": "sensitivity of efflux mutant PAO 200 compared with wild type", "setting": "[4]", "value": "not more sensitive"}, {"measurement": "sensitivity of JBK-1 carrying E. coli lpxC to killing", "setting": "[5]", "value": "still sensitive to killing by a slightly higher concentration"}, {"measurement": "inhibitor concentration to which JBK-1 carrying P. aeruginosa lpxC is resistant", "setting": "[6]; 42° C., data not shown", "value": "> 50", "unit": "µg/mL"}, {"measurement": "resistance level relative to the MIC of the wild type organisms", "setting": "[6]; JBK-1 carrying P. aeruginosa lpxC", "value": "about 50 times"}, {"measurement": "sensitivity of all promoter swap transformants with chromosomal lpxC induced", "setting": "[7]; LB containing 0.2% arabinose, vector with E. coli or P. aeruginosa lpxC", "value": "resistant to killing"}, {"measurement": "sensitivity of P. aeruginosa expressing only E. coli LpxC versus wild type / P. aeruginosa enzyme", "setting": "[7]; promoter swap, native lpxC shut off, plasmid-borne E. coli lpxC, no arabinose", "value": "much more sensitive"}, {"measurement": "minimal inhibitory concentration against E. coli", "setting": "E. coli [8]", "value": "about 1 microgram per milliliter"}, {"measurement": "sensitivity of P. aeruginosa in combination with PMBN", "setting": "P. aeruginosa PA01 [2]", "value": "remained unchanged"}, {"measurement": "outcome in mice infected with lethal dose of E. coli", "setting": "E. coli [9]", "value": "cured"}, {"measurement": "inhibition of LpxC from P. aeruginosa", "setting": "LpxC from P. aeruginosa", "value": "only at very high concentrations, and even then it did so poorly"}, {"measurement": "effect on bacterial growth of P. aeruginosa", "setting": "P. aeruginosa", "value": "no effect on bacterial growth"}]}
